The text below walks through data of patent US20260109708A1, “COMPOUNDS AND COMPOSITIONS USEFUL AS DEGRADERS OF MK2 KINASE” (Celgene Corporation, priority 2023, published 2026).

A word on the IC50: it is the midpoint of a concentration-inhibition curve.

T1 sequence (P49137 whole entry): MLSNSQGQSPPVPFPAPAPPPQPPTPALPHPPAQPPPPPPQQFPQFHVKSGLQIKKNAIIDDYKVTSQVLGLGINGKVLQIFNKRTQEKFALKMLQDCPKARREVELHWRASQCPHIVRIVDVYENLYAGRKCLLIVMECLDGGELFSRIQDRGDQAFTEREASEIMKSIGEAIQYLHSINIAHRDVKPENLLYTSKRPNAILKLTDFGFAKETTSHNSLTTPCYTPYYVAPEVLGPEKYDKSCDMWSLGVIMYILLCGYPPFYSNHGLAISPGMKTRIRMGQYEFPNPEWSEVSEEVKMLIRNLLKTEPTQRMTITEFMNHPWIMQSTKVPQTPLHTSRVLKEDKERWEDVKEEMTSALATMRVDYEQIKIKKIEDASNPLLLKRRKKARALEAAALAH

The experiment has as its target T1, p38a activated, mitogen-activated protein kinase-activated protein kinase 2 (MAPKAP-K2 or MK2) enzyme (Homo sapiens, UniProt P49137).
T1 construct: purchased Invitrogen PV3317
The experiment can be described thus: MK2 OMNIA biochemical assay (AssayQuant continuous-read kinase assay). The note with it: [MK-2]=0.05 nM, [ATP]=100 μM, [AQT0425]=10 μM. The source says: Example 56.2. Mitogen-Activated Protein Kinase-Activated Protein Kinase 2 AssayQuant Technologies® Assay for Compound Potency Assessment (MK2 OMNIA Biochemical Assay)
The protocol below describes a continuous-read kinase assay optimized to measure potency of compounds against p38a activated, mitogen-activated protein kinase-activated protein kinase 2 (MAPKAP-K2 or MK2) enzyme.
A 1.25× stock solution of MK2 (PV3317, from Invitrogen) and a 5× stock solution of ATP and Sox conjugated peptide substrate, AQT0425 (CSKS-AQT0425B, from AssayQuant Technologies), were prepared in 1× kinase reaction buffer consisting of 50 mM HEPES, pH 7.5, 0.01% Brij-35, 0.55 mM EGTA, 10 mM MgCl2 and 1 mM DTT.
10 μL of the ATP and substrate solution mix was added to a Coming (3574) 384-well, white, non-binding surface microtiter plate containing 0.5 μL of serially diluted test compounds prepared in DMSO. The reactions were started with the addition of 40 μL of the enzyme solution and monitored every 71 seconds for 240 min at kex 360/λem 485 in a Synergy H4 plate reader from BioTek at room temperature.
The initial linear portions of the net progress curves were fit according to a linear equation to yield the slope and percentage of inhibition (% inhibition) at each compound concentration. The net progress curves obtained during the entirety of reactions were also fit according to an ascending single-exponential equation (Eq. 1) to yield Vobs values at each compound concentration. Plots of % Inhibition versus degrader concentrations were fit according to a dose-response equation (Eq. 2) to generate IC50 and Hill slope values while plots of Vobs versus degrader concentration were fit according to Equation 3 (Eq. 3) to generate apparent Kinact values using the GraphPad PRISM software.
where F is the fluorescence intensity from the plate reader, V0 is a constant reflecting the relationship between the instrument readout and product concentration, t is time, e is Euler's number, and Vobs is the observed inactivation rate constant.
where % Inhibition is percentage of inhibition, IC50 is half maximal inhibitory concentration, [I] is the degraders concentration, and n is the Hill slope.
where kobs is the observed inactivation rate constant, Kinact is the apparent inactivation rate constant, K1 is the apparent inhibition constant, and [I] is the degrader concentration.
Turning to `C[C@@H]1COc2c(sc3ccc4nc(-c5cccc(N6CCN(CCN7CCN(c8ccc9c(C%10CCC(=O)NC%10=O)nn(C)c9c8)CC7)CC6)c5)ccc4c23)C(=O)N1` (stereo partly drawn) [Ex 17, 3-(1-Methyl-6-(4-(2-(4-(3-((R)-10-methyl-8-oxo-8,9,10,11-tetrahydro-[1,4]oxazepino[7′,6′:4,5]thieno[3,2-f]quinolin-3-yl)phenyl)piperazin-1-yl)ethyl)piperazin-1-yl)-1H-indazol-3-yl)piperidine-2,6-dione], the 50% inhibitory concentration (IC50) was less than 150 nM. Take `C[C@@H]1CNc2c(sc3ccc4nc(-c5cnc(C6CCN(CCN7CCN(c8ccc(C9CCC(=O)NC9=O)cc8)CC7)CC6)nc5)ccc4c23)C(=O)N1` (stereo partly drawn) [Ex 36, 3-(4-(4-(2-(4-(5-((R)-10-Methyl-8-oxo-9,10,11,12-tetrahydro-8H-[1,4]diazepino[5′,6′:4,5]thieno[3,2-f]quinolin-3-yl)pyrimidin-2-yl)piperidin-1-yl)ethyl)piperazin-1-yl)phenyl)piperidine-2,6-dione]: the IC50 lay within 151 to 500 nM. Next, `C[C@@H]1COc2c(sc3ccc4nc(-c5ccc(C6CN(CCN7CCN(c8ccc(C9CCC(=O)NC9=O)cc8)CC7)C6)cc5)ccc4c23)C(=O)N1` (stereo partly drawn) [Ex 33, 3-(4-(4-(2-(3-(4-((R)-10-Methyl-8-oxo-8,9,10,11-tetrahydro-[1,4]oxazepino[7′,6′:4,5]thieno[3,2-f]quinolin-3-yl)phenyl)azetidin-1-yl)ethyl)piperazin-1-yl)phenyl)piperidine-2,6-dione]: less than 150 nM; `C[C@@H]1CNc2c(sc3ccc4nc(-c5ccc(N6CC(CCN7CCN(c8ccc(C9CCC(=O)NC9=O)cc8)CC7)C6)cc5)ccc4c23)C(=O)N1` (stereo partly drawn) [Ex 42, 3-(4-(4-(2-(1-(4-((R)-10-Methyl-8-oxo-9,10,11,12-tetrahydro-8H-[1,4]diazepino[5′,6′:4,5]thieno[3,2-f]quinolin-3-yl)phenyl)azetidin-3-yl)ethyl)piperazin-1-yl)phenyl)piperidine-2,6-dione]: less than 150 nM; `C[C@@H]1CNc2c(sc3ccc4nc(-c5ccc(C6CCN(CCN7CCC(c8ccc(C9CCC(=O)NC9=O)cc8)CC7)CC6)cc5)ccc4c23)C(=O)N1` (stereo partly drawn) [Ex 29, 3-(4-(1-(2-(4-(4-((R)-10-Methyl-8-oxo-9,10,11,12-tetrahydro-8H-[1,4]diazepino[5′,6′:4,5]thieno[3,2-f]quinolin-3-yl)phenyl)piperidin-1-yl)ethyl)piperidin-4-yl)phenyl)piperidine-2,6-dione]: less than 150 nM. For the compound `C[C@@H]1CNc2c(sc3ccc4nc(-c5ccc(C6CCN(CCN7CCN(c8ccc9c(C%10CCC(=O)NC%10=O)nn(C)c9c8)CC7)CC6)cc5)ccc4c23)C(=O)N1` (stereo partly drawn) [Ex 28, 3-(1-Methyl-6-(4-(2-(4-(4-((R)-10-methyl-8-oxo-9,10,11,12-tetrahydro-8H-[1,4]diazepino[5′,6′:4,5]thieno[3,2-f]quinolin-3-yl)phenyl)piperidin-1-yl)ethyl)piperazin-1-yl)-1H-indazol-3-yl)piperidine-2,6-dione], the IC50 was less than 150 nM. Consider `C[C@@H]1CNc2c(sc3ccc4nc(-c5ccc(N6CCN(C(=O)C(=O)N7CCN(c8ccc(C9CCC(=O)NC9=O)cc8)CC7)CC6)cc5)ccc4c23)C(=O)N1` (stereo partly drawn) [Ex 23, 3-(4-(4-(2-(4-(4-((R)-10-Methyl-8-oxo-9,10,11,12-tetrahydro-8H-[1,4]diazepino[5′,6′:4,5]thieno[3,2-f]quinolin-3-yl)phenyl)piperazin-1-yl)-2-oxoacetyl)piperazin-1-yl)phenyl)piperidine-2,6-dione], for which the half-inhibitory concentration (IC50) is less than 150 nM. Next, `C[C@@H]1COc2c(sc3ccc4nc(-c5cccc(N6CCN(CCN7CCN(c8ccc(C9CCC(=O)NC9=O)cc8)CC7)CC6)c5)ccc4c23)C(=O)N1` (stereo partly drawn) [Ex 16, 3-(4-(4-(2-(4-(3-((R)-10-Methyl-8-oxo-8,9,10,11-tetrahydro-[1,4]oxazepino[7′,6′:4,5]thieno[3,2-f]quinolin-3-yl)phenyl)piperazin-1-yl)ethyl)piperazin-1-yl)phenyl)piperidine-2,6-dione]: less than 150 nM; `C[C@@H]1CNc2c(sc3ccc4nc(-n5cc(C6CN(CCN7CCN(c8ccc(C9CCC(=O)NC9=O)cc8)CC7)C6)nn5)ccc4c23)C(=O)N1` (stereo partly drawn) [Ex 53, 3-(4-(4-(2-(3-(1-((R)-10-Methyl-8-oxo-9,10,11,12-tetrahydro-8H-[1,4]diazepino[5′,6′:4,5]thieno[3,2-f]quinolin-3-yl)-1H-1,2,3-triazol-4-yl)azetidin-1-yl)ethyl)piperazin-1-yl)phenyl)piperidine-2,6-dione]: less than 150 nM. `C[C@@H]1CNc2c(sc3ccc4nc(-c5ccc(N6CCC(CCN7CCC(c8ccc(C9CCC(=O)NC9=O)cc8)CC7)CC6)cc5)ccc4c23)C(=O)N1` (stereo partly drawn) [Ex 40, 3-(4-(1-(2-(1-(4-((R)-10-Methyl-8-oxo-9,10,11,12-tetrahydro-8H-[1,4]diazepino[5′,6′:4,5]thieno[3,2-f]quinolin-3-yl)phenyl)piperidin-4-yl)ethyl)piperidin-4-yl)phenyl)piperidine-2,6-dione]: the IC50 was 151 to 500 nM.

Regarding `C[C@@H]1CNc2c(sc3ccc4nc(-c5ccc(N6CCN(CCN7CCN(c8ccc(C9CCC(=O)NC9=O)cc8)CC7)CC6)cc5)ccc4c23)C(=O)N1` (stereo partly drawn) [Ex 22, 3-(4-(4-(2-(4-(4-((R)-10-Methyl-8-oxo-9,10,11,12-tetrahydro-8H-[1,4]diazepino[5′,6′:4,5]thieno[3,2-f]quinolin-3-yl)phenyl)piperazin-1-yl)ethyl)piperazin-1-yl)phenyl)piperidine-2,6-dione], the IC50 is 151 to 500 nM. Next, `C[C@@H]1CNc2c(sc3ccc4nc(-c5ccc(C(=O)N[C@H]6C[C@H](CCN7CCN(c8ccc9c(C%10CCC(=O)NC%10=O)nn(C)c9c8)CC7)C6)cc5F)ccc4c23)C(=O)N1` (stereo partly drawn) [Ex 4, N-(trans-3-(2-(4-(3-(2,6-Dioxopiperidin-3-yl)-1-methyl-1H-indazol-6-yl)piperazin-1-yl)ethyl)cyclobutyl)-3-fluoro-4-((R)-10-methyl-8-oxo-9,10,11,12-tetrahydro-8H-[1,4]diazepino[5′,6′:4,5]thieno[3,2-f]quinolin-3-yl)benzamide]: less than 150 nM; `C[C@@H]1CNc2c(sc3ccc4nc(-c5ccc(C6CCN(CCN7CCN(c8ccc(C9CCC(=O)NC9=O)cc8)CC7)CC6)nc5)ccc4c23)C(=O)N1` (stereo partly drawn) [Ex 34, 3-(4-(4-(2-(4-(5-((R)-10-Methyl-8-oxo-9,10,11,12-tetrahydro-8H-[1,4]diazepino[5′,6′:4,5]thieno[3,2-f]quinolin-3-yl)pyridin-2-yl)piperidin-1-yl)ethyl)piperazin-1-yl)phenyl)piperidine-2,6-dione]: 151 to 500 nM. The figure for `C[C@@H]1CNc2c(sc3ccc4nc(-c5ccc(C6CN(CCN7CCN(c8ccc(C9CCC(=O)NC9=O)cc8)CC7)C6)cc5)ccc4c23)C(=O)N1` (stereo partly drawn) [Ex 30, 3-(4-(4-(2-(3-(4-((R)-10-Methyl-8-oxo-9,10,11,12-tetrahydro-8H-[1,4]diazepino[5′,6′:4,5]thieno[3,2-f]quinolin-3-yl)phenyl)azetidin-1-yl)ethyl)piperazin-1-yl)phenyl)piperidine-2,6-dione] is less than 150 nM; for `C[C@@H]1CNc2c(sc3ccc4nc(-c5ccc(C6CCN(CCN7CCN(c8ccc(C9CCC(=O)NC9=O)cc8)CC7)CC6)nn5)ccc4c23)C(=O)N1` (stereo partly drawn) [Ex 37, 3-(4-(4-(2-(4-(6-((R)-10-Methyl-8-oxo-9,10,11,12-tetrahydro-8H-[1,4]diazepino[5′,6′:4,5]thieno[3,2-f]quinolin-3-yl)pyridazin-3-yl)piperidin-1-yl)ethyl)piperazin-1-yl)phenyl)piperidine-2,6-dione] it is less than 150 nM; for `C[C@@H]1CNc2c(sc3ccc4nc(-n5cc(C6CCN(CCN7CCC(c8ccc(C9CCC(=O)NC9=O)cc8)CC7)CC6)nn5)ccc4c23)C(=O)N1` (stereo partly drawn) [Ex 47, 3-(4-(1-(2-(4-(1-((R)-10-Methyl-8-oxo-9,10,11,12-tetrahydro-8H-[1,4]diazepino[5′,6′:4,5]thieno[3,2-f]quinolin-3-yl)-1H-1,2,3-triazol-4-yl)piperidin-1-yl)ethyl)piperidin-4-yl)phenyl)piperidine-2,6-dione] it is less than 150 nM. The figure for `C[C@@H]1CNc2c(sc3ccc4nc(-c5ccc(N6CC7CC(C6)N7CCN6CCN(c7ccc(C8CCC(=O)NC8=O)cc7)CC6)cc5)ccc4c23)C(=O)N1` (stereo partly drawn) [Ex 24, 3-(4-(4-(2-(3-(4-((R)-10-Methyl-8-oxo-9,10,11,12-tetrahydro-8H-[1,4]diazepino[5′,6′:4,5]thieno[3,2-f]quinolin-3-yl)phenyl)-3,6-diazabicyclo[3.1.1]heptan-6-yl)ethyl)piperazin-1-yl)phenyl)piperidine-2,6-dione] is less than 150 nM.
